Test results published in patent US8143288B2, “Inhibitors of HCV replication” (priority 2005, dated 2012).

Test system: HCV 1b-377-neo replicon cells
Test: HCV replicon FRET assay
Format: cell-based
Conditions: Hepatitis C virus; HCV replicon; read-out: Activity (EC50)
Description: The HCV replicon cell line was isolated from colonies as described by Lohman, et. al. (Science 1999, 285, 110-113, expressly incorporated by reference in its entirety) and used for all experiments. The HCV replicon has the nucleic acid sequence set forth in EMBL Accession No.: AJ242652, the coding sequence of which is from nt 1801 to 7758.
The coding sequence of the published HCV replicon was synthesized by Operon Technologies, Inc. (Alameda, Calif.), and the fall-length replicon was then assembled in plasmid pGem9zf(+) (Promega, Madison, Wis.) using standard molecular biology techniques. The replicon consists of (i) the HCV 5′ UTR fused to the first 12 amino acids of the capsid protein, (ii) the neomycin phosphotransferase gene (neo), (iii) the IRES from encephalomyocarditis virus (EMCV), and (iv) HCV NS3 to NS5B genes and the HCV 3′ UTR. Plasmid DNAs were linearized with ScaI and RNA transcripts were synthesized in vitro using the T7 MegaScript transcription kit (Ambion, Austin, Tex.) according to manufacturer's directions.
To generate cell lines, 4×10^6 Huh-7 cells (kindly provided by R. Bartenschlager and available from Health Science Research Resources Bank, Japan Health Sciences Foundation) were electroporated (GenePulser System, Bio-Rad) with 10 micrograms(“μg”) of RNA transcript and plated into 100-mm dishes. After 24 hours, selective media containing 1.0 milligrams/milliliter (“mg/mL”) G418 was added and media was changed every 3 to 5 days. […] These cell lines were maintained at 37° C., 5% CO2, 100% relative humidity in DMEM (Cat#11965-084) Gibco-BRL, Rockville, Md., with 10% heat inactivated calf serum (Sigma), 10 mL of 100× penicillin/streptomycin (Cat#15140-122) Gibco-BRL, Rockville, Md., Geneticin (Cat#10131-027) Gibco-BRL, Rockville, Md. at 1 mg/mL. One of the cell lines (deposited as ATCC Accession No. PTA-4583 in the American Type Culture Collection) which had approximately 3,000 copies of HCV replicon RNA/cell was used for development of the assay (HCV 1b-377-neo replicon cells).
To perform the HCV FRET screening assay, 96-well cell culture plates were used. The FRET peptide (Anaspec, Inc., San Jose, Calif.) (Taliani et al., Anal. Biochem. 1996, 240, 60-67, hereby incorporated by reference in its entirety) contains a fluorescence donor, EDANS, near one end of the peptide and an acceptor, DABCYL, near the other end. The fluorescence of the peptide is quenched by […] resonance energy transfer (RET) between the donor and the acceptor, but as the NS3 protease cleaves the peptide the products are released from RET quenching and the fluorescence of the donor becomes apparent.
The assay reagent was made as follows: 5X luciferase cell culture lysis (Cat#E153A, Promega, Madison, Wis.) diluted to 1X with dH2O, NaCl added to […] final, the FRET peptide diluted to 20 micromolar (“μM”) final from a 2 mM stock. HCV 1b-377-neo replicon cells were trypsinized, placed into each well of a 96-well plate and allowed to attach overnight. The next day, the test compounds were added to columns 1 through 10; column 11 was media plus DMSO only, and column 12 contained a titration of interferon or an HCV specific inhibitor as a control (1000 units for A12, B12, 100 units for C12, D12, 10 units for E12, F12 and 1 unit for G12, H12). […] In addition, naïve Huh-7 cells could also be used to replace wells A12 and B12 as a background control.
At subsequent various times (typically 72 hours), 10% final volume Alamar blue (Cat#00-100, Trek Diagnostics, Cleveland, Ohio) was added to each well. The plates were returned to the incubator for 5 hours and then read in the Cytoflour (PE Biosystems) to determine Alamar blue conversion in each well as a measure of cellular toxicity.

`Cc1ncccc1C(=O)N1CCC[C@H]1C(=O)Nc1ccc(/C=C/c2ccc(NC(=O)[C@@H]3CCCN3C(=O)c3cccnc3C)cc2)cc1` [Example 76] showed an EC50 of 100 to 1000 nM.

`O=C(Nc1ccc(/C=C/c2ccc(NC(=O)[C@@H]3CCCN3C(=O)c3cn[nH]c3)cc2)cc1)[C@@H]1CCCN1C(=O)c1cn[nH]c1` [Example 77] showed an EC50 of 0.1 to 90 nM.

Compound `O=C(Nc1ccc(/C=C/c2ccc(NC(=O)[C@@H]3CCCN3C(=O)c3ccno3)cc2)cc1)[C@@H]1CCCN1C(=O)c1ccno1` [Example 79] has an EC50 of 0.1 to 90 nM.

Compound `Cc1ccc(C(=O)N2CCC[C@H]2C(=O)Nc2ccc(/C=C/c3ccc(NC(=O)[C@@H]4CCCN4C(=O)c4ccc(C)nc4)cc3)cc2)cn1` [Example 80] has an EC50 of 100 to 1000 nM.

`CSCC(=O)N1CCC[C@H]1C(=O)Nc1ccc(/C=C/c2ccc(NC(=O)[C@@H]3CCCN3C(=O)CSC)cc2)cc1` [Example 81] gave an EC50 of 0.1 to 90 nM.

Work on `CN(C)c1ccc(C(=O)N2CCC[C@H]2C(=O)Nc2ccc(/C=C/c3ccc(NC(=O)[C@@H]4CCCN4C(=O)c4ccc(N(C)C)cc4)cc3)cc2)cc1` [Example 82] yielded an EC50 of 1000 to 10000 nM.

`CN(C)CC(=O)N1CCC[C@H]1C(=O)Nc1ccc(/C=C/c2ccc(NC(=O)[C@@H]3CCCN3C(=O)c3ccc(N(C)C)cc3)cc2)cc1` [Example 83] was tested, and the EC50 was 100 to 1000 nM.

For `CSCC(=O)N1CCC[C@H]1C(=O)Nc1ccc(/C=C/c2ccc(NC(=O)[C@@H]3CCCN3C(=O)c3ccccn3)cc2)cc1` [Example 84], the EC50 was 0.1 to 90 nM.

`O=C(Nc1ccc(/C=C/c2ccc(NC(=O)[C@@H]3CCCN3C(=O)C3CCC3)cc2)cc1)[C@@H]1CCCN1C(=O)c1ccccn1` [Example 85] showed an EC50 of 0.1 to 90 nM.

Compound `CSCC(=O)N1CCC[C@H]1C(=O)Nc1ccc(/C=C/c2ccc(NC(=O)[C@@H]3CCCN3C(=O)c3cccnc3)cc2)cc1` [Example 86] has an EC50 of 0.1 to 90 nM.

`COCC(=O)N1CCC[C@H]1C(=O)Nc1ccc(/C=C/c2ccc(NC(=O)[C@@H]3CCCN3C(=O)c3cccnc3)cc2)cc1` [Example 87] gave an EC50 of 0.1 to 90 nM.

With `O=C(Nc1ccc(/C=C/c2ccc(NC(=O)[C@@H]3CCCN3C(=O)C3CCC3)cc2)cc1)[C@@H]1CCCN1C(=O)c1cccnc1` [Example 88] the EC50 was 0.1 to 90 nM.

With `CC(C)C(=O)N1CCC[C@H]1C(=O)Nc1ccc(/C=C/c2ccc(NC(=O)[C@@H]3CCCN3C(=O)c3cccnc3)cc2)cc1` [Example 89] the EC50 was 0.1 to 90 nM.

`CCC(=O)N1CCC[C@H]1C(=O)Nc1ccc(/C=C/c2ccc(NC(=O)[C@@H]3CCCN3C(=O)c3cccnc3)cc2)cc1` [Example 90] gave an EC50 of 0.1 to 90 nM.

With `COCC(=O)N1CCC[C@H]1C(=O)Nc1ccc(/C=C/c2ccc(NC(=O)[C@@H]3CCCN3C(=O)c3ccc(N(C)C)cc3)cc2)cc1` [Example 91] the EC50 was 100 to 1000 nM.

In the case of `CN(C)c1ccc(C(=O)N2CCC[C@H]2C(=O)Nc2ccc(/C=C/c3ccc(NC(=O)[C@@H]4CCCN4C(=O)C4CCC4)cc3)cc2)cc1` [Example 92], the EC50 is reported as 0.1 to 90 nM.

For `CC(C)C(=O)N1CCC[C@H]1C(=O)Nc1ccc(/C=C/c2ccc(NC(=O)[C@@H]3CCCN3C(=O)c3ccc(N(C)C)cc3)cc2)cc1` [Example 93], the EC50 was 100 to 1000 nM.

Compound `CSCC(=O)N1CCC[C@H]1C(=O)Nc1ccc(/C=C/c2ccc(NC(=O)[C@@H]3CCCN3C(=O)Cc3cc(C)no3)cc2)cc1` [Example 94] has an EC50 of 0.1 to 90 nM.

`COCC(=O)N1CCC[C@H]1C(=O)Nc1ccc(/C=C/c2ccc(NC(=O)[C@@H]3CCCN3C(=O)Cc3cc(C)no3)cc2)cc1` [Example 95] showed an EC50 of 0.1 to 90 nM.

Work on `Cc1cc(CC(=O)N2CCC[C@H]2C(=O)Nc2ccc(/C=C/c3ccc(NC(=O)[C@@H]4CCCN4C(=O)C4CCC4)cc3)cc2)on1` [Example 96] yielded an EC50 of 0.1 to 90 nM.

For `Cc1cc(CC(=O)N2CCC[C@H]2C(=O)Nc2ccc(/C=C/c3ccc(NC(=O)[C@@H]4CCCN4C(=O)CN(C)C)cc3)cc2)on1` [Example 97], the EC50 was 0.1 to 90 nM.

Compound `Cc1cc(CC(=O)N2CCC[C@H]2C(=O)Nc2ccc(/C=C/c3ccc(NC(=O)[C@@H]4CCCN4C(=O)C(C)C)cc3)cc2)on1` [Example 98] has an EC50 of 0.1 to 90 nM.

`CSCC(=O)N1CCC[C@H]1C(=O)Nc1ccc(/C=C/c2ccc(NC(=O)[C@@H]3CCCN3C(=O)Cc3cccs3)cc2)cc1` [Example 99] was tested, and the EC50 was 0.1 to 90 nM.

With `COCC(=O)N1CCC[C@H]1C(=O)Nc1ccc(/C=C/c2ccc(NC(=O)[C@@H]3CCCN3C(=O)Cc3cccs3)cc2)cc1` [Example 100] the EC50 was 0.1 to 90 nM.

In the case of `CN(C)CC(=O)N1CCC[C@H]1C(=O)Nc1ccc(/C=C/c2ccc(NC(=O)[C@@H]3CCCN3C(=O)Cc3cccs3)cc2)cc1` [Example 101], the EC50 is reported as 0.1 to 90 nM.

Compound `CC(C)C(=O)N1CCC[C@H]1C(=O)Nc1ccc(/C=C/c2ccc(NC(=O)[C@@H]3CCCN3C(=O)Cc3cccs3)cc2)cc1` [Example 102] has an EC50 of 0.1 to 90 nM.

`CCC(=O)N1CCC[C@H]1C(=O)Nc1ccc(/C=C/c2ccc(NC(=O)[C@@H]3CCCN3C(=O)Cc3cccs3)cc2)cc1` [Example 103] was tested, and the EC50 was 0.1 to 90 nM.

`Cn1cccc1CC(=O)N1CCC[C@H]1C(=O)Nc1ccc(/C=C/c2ccc(NC(=O)[C@@H]3CCCN3C(=O)Cc3cccn3C)cc2)cc1` [Example 105] gave an EC50 of 0.1 to 90 nM.

For `O=C(Nc1ccc(/C=C/c2ccc(NC(=O)[C@@H]3CCCN3C(=O)Cc3ccccc3F)cc2)cc1)[C@@H]1CCCN1C(=O)Cc1ccccc1F` [Example 106], the EC50 was 0.1 to 90 nM.

In the case of `O=C(Nc1ccc(/C=C/c2ccc(NC(=O)[C@@H]3CCCN3C(=O)c3ccccc3F)cc2)cc1)[C@@H]1CCCN1C(=O)c1ccccc1F` [Example 107], the EC50 is reported as 100 to 1000 nM.

In the case of `O=C(Nc1ccc(/C=C/c2ccc(NC(=O)[C@@H]3CCCN3C(=O)c3cc(F)ccc3F)cc2)cc1)[C@@H]1CCCN1C(=O)c1cc(F)ccc1F` [Example 108], the EC50 is reported as 100 to 1000 nM.

`O=C1N[C@H]2[C@H](CS[C@H]2CCCCC(=O)N2CCC[C@H]2C(=O)Nc2ccc(/C=C/c3ccc(NC(=O)[C@@H]4CCCN4C(=O)Cc4ccccc4)cc3)cc2)N1` [Example 109] gave an EC50 of 0.1 to 90 nM.

In the case of `O=C(Nc1ccc(/C=C/c2ccc(NC(=O)[C@@H]3CCCN3C(=O)[C@H]3CCCO3)cc2)cc1)[C@@H]1CCCN1C(=O)[C@H]1CCCO1` [Example 110], the EC50 is reported as 0.1 to 90 nM.

With `O=C(Nc1ccc(/C=C/c2ccc(NC(=O)[C@@H]3CCCN3C(=O)[C@@H]3CCCO3)cc2)cc1)[C@@H]1CCCN1C(=O)[C@@H]1CCCO1` [Example 111] the EC50 was 100 to 1000 nM.

In the case of `CC(C)(C)OC(=O)N1CC(C(=O)N2CCC[C@H]2C(=O)Nc2ccc(/C=C/c3ccc(NC(=O)[C@@H]4CCCN4C(=O)C4CN(C(=O)OC(C)(C)C)C4)cc3)cc2)C1` [Example 112], the EC50 is reported as 100 to 1000 nM.

With `Cc1cccc(C(=O)N2CCC[C@H]2C(=O)Nc2ccc(/C=C/c3ccc(NC(=O)[C@@H]4CCCN4)cc3)cc2)n1` [Example 113] the EC50 was 1000 to 10000 nM.

For `Cc1cccc(C(=O)N2CCC[C@H]2C(=O)Nc2ccc(/C=C/c3ccc(NC(=O)[C@@H]4CCCN4C(=O)c4cccc(C)n4)cc3)cc2)n1` [Example 114], the EC50 was 100 to 1000 nM.

For `O=C(Nc1ccc(/C=C/c2ccc(NC(=O)[C@@H]3CCCN3C(=O)C3Cc4ccccc43)cc2)cc1)[C@@H]1CCCN1` (some centres unmarked) [Example 115], the EC50 was 1000 to 10000 nM.

With `O=C(Nc1ccc(/C=C/c2ccc(NC(=O)[C@@H]3CCCN3C(=O)C3Cc4ccccc43)cc2)cc1)[C@@H]1CCCN1C(=O)C1Cc2ccccc21` (some centres unmarked) [Example 116] the EC50 was 1000 to 10000 nM.

`O=C(Nc1ccc(/C=C/c2ccc(N(C(=O)c3cccs3)C(=O)[C@@H]3CCCN3C(=O)c3cccs3)cc2)cc1)[C@@H]1CCCN1C(=O)c1cccs1` [Example 117] was tested, and the EC50 was 0.1 to 90 nM.

With `[N-]=[N+]=Nc1ccc(C(=O)N2CCC[C@H]2C(=O)Nc2ccc(/C=C/c3ccc(NC(=O)[C@@H]4CCCN4C(=O)Cc4ccccc4)cc3)cc2)cc1` [Example 118] the EC50 was 0.1 to 90 nM.
